In patent US10023864B2, “Methods of treating a metabolic syndrome by modulating heat shock protein (HSP) 90-beta” (Berg LLC, priority 2014, dated 2018):
Entries after “also recorded” stand apart in the source; their conditions may differ. d = 2'-deoxy (DNA); m = 2'-O-methyl

Key:
human Hsp90AB1 protein = test: Knockdown of Hsp90AB1 protein in HSMM by Western blotting; format: cell-based; settings: Western blot, normalized to actin, vs NC1
Description: ASO1-ASO6 were tested for their ability to knock down human Hsp90AB1 levels in HSMM myotubes. The effectiveness of oligonucleotides ASO1 (A1), ASO2 (A2) ASO3 (A3) ASO4 (A4) ASO5 (A5) and ASO6 (A6) in knocking down the expression of HSP90AB1 protein is shown by Western blotting in FIGS. 19A and 19B. The oligonucleotide NC1 was used as a negative control. HSP90Ab1 protein levels were normalized to the levels of actin.
The ASO oligonucleotides ASO5, ASO13 and ASO18 were tested for their ability to reduce expression of human Hsp90AB1 protein in human skeletal muscle myotubes (HSMM) and C2C12 mouse myoblasts by Western blotting. ASO5 was derived from the mouse HSP90ab1 gene, while ASO13 and ASO18 were directed to the human HSP90ab1 gene. The oligonucleotide NC1 was used as a negative control. HSP90AB1protein levels were normalized to the levels of actin.

human Hsp90AB1 mRNA = test: Knockdown of Hsp90AB1 mRNA in HSMM myotubes; format: cell-based; settings: normalized to cyclophilin, vs NC1ASO
Source text: The level of human Hsp90AB1 at the mRNA level was similarly observed to be reduced in HSMM myotubes treated with the exemplary mouse antisense oligonucleotide ASO6 (FIG. 20). ASO6 (and ASOs 1-5 and 7-9) is derived from the mouse HSP90AB1 gene. The oligonucleotide NC1ASO was again used as a negative control. The level of HSP90 mRNA was normalized to a control (cyclophilin) mRNA. The human and the mouse Hsp90aB1 gene share 96% homology.

DIO mice [1] = test: Intraperitoneal glucose tolerance test (IPGTT) in DIO mice; format: in vivo, mouse; settings: four weeks treatment, vs NC ASO
Description: Glucose tolerance tests (GTT) are performed after 6 h of fasting. Initial fasting blood glucose levels are determined, followed by intraperitoneal (ip) injection of 20% dextrose solution at a dose of 2.0 g/kg body weight (2 g/kg body weight). Blood glucose levels are measured from the tail vein at 15, 30, 60, 90, 120, 150, and 180 minutes after the glucose injection using a commercially available glucose monitor, e.g., an Accu-chek® Advantage glucometer (Roche Diagnostics®, Indianapolis, Ind.). The area under the curve (AUC) during the GTT is calculated using a commercially available software program, e.g., GraphPad Prism software. GTT experiments for different groups are run in parallel. At each time point of the tail vein glucose measurements, ˜40 μL of tail vein blood is collected and plasma is prepared for subsequent insulin level assays using ELISA/RIA for time points at 0, 15, and 30 min after glucose injections.
HSP90AB1 antisense oligonucleotides (ASO) specific to HSP90AB1 were administered to DIO mice. […]
The mice were divided into four groups: (1) lean (non-diabetic control); (2) diabetic receiving control ASO (NC-ASO); (3) diabetic receiving ASO5; and (4) diabetic receiving ASO6. […] Skeletal muscles were subjected to quantitative PCR.
At the end of the treatment period glucose tolerance was measured. […]

DIO mice [2] = test: Fed / plasma glucose level in DIO mice; format: in vivo, mouse
Description: (§1) The mice were divided into four groups: (1) lean (non-diabetic control); (2) diabetic receiving control ASO (NC-ASO); (3) diabetic receiving ASO5; and (4) diabetic receiving ASO6. In various experiments mice were dosed intra-peritoneally with twice per week injection of ASO at […] body weight for 4 or 8 weeks. Skeletal muscles were subjected to quantitative PCR.
Additional experiments were performed to determine the effect of the reduction of Hsp90ab1 protein level on the level of glucose in plasma. […] Thus, treatment with an Hsp90ab1 selective ASO is effective for improving glucose utilization in DIO mice.

DIO mice [3] = test: Insulin level in DIO mice; format: in vivo, mouse
Description: as §1
Further, the effect of the reduction of Hsp90ab1 protein level on plasma insulin levels was examined.

Hsp90ab1 mRNA = Hsp90ab1 mRNA in gastrocnemius muscles of DIO mice (quantitative PCR); format: in vivo, mouse; settings: ASO intra-peritoneally twice per week
Description: as §1

[4] = tested on: skeletal muscles of DIO mice; test: Skeletal muscle gene expression and PDH-E1α phosphorylation in DIO mice; format: in vivo, mouse
Source text: PDK4 is known to phosphorylate pyruvate dehydrogenase (PDH)-E1α subunit, thereby inhibiting PDH and downregulating mitochondrial glucose oxidation. […] This decrease in phosphorylation is indicative of an increase in active PDH-E1α and a resultant increase in mitochondrial glucose oxidation. Thus, ASO mediated Hsp90ab1 knock-down is effective for enhancing substrate metabolism through suppression of PDK4 expression.
These genes are PFKM (phosphofructokinase, muscle), ALDOA (aldolase A), GYS1 (glycogen synthase 1) ACCA (Acetyl-CoA carboxylase), HSL (Hormone sensitive lipase), SCD1 (Stearoyl-CoA desaturase), ACADL (Acyl-CoA Dehydrogenase), and CPT1b (Carnitine palmitoyltransferase I). Gene expression was examined in the skeletal muscles of the mice.

muscle of DIO mice = test: Lipidomic analysis of muscle of DIO mice; format: in vivo, mouse
Source text: As noted in the above examples, Hsp90ab1 was identified as a critical node in Bayesian metabolic disease network derived by the interrogation of the biology underlying diabetes in a data driven manner. This was achieved by using a proprietary platform integrating pan-omic data, mitochondrial-centric metabolic fingerprint and phenotypic assays capturing metabolic dysregulation reminiscent of obesity/diabetes sequale. Hsp90ab1 is an ATPase targeting multiple clients including vital components of insulin signaling and mitochondrial membrane proteins. However the role of Hsp90ab1 in metabolism remains unknown. […] This was accompanied by decreased muscle PDH E1a phosphorylation, reflecting an increased insulin sensitivity and carbohydrate substrate metabolism. We also observed significant alteration in the lipidomic profile in these DIO mice treated with ASO6. For example ASO6-mediated knockdown of Hsp90ab1 in DIO mice increased 18:2 enriched species of cardiolipin in muscle. […] Taken together, our data provides novel evidence that Hsp90ab1 isoform is a key regulator of skeletal muscle cell metabolism and systemic metabolism, and represents a target for treatment of diabetes.

## mU*mC*mC*mU*mC*mC*T*C*T*T*T*C*T*C*A*C*C*T*mU*mU*mC*mU*mC*mU (antisense UCCUCCTCTTTCTCACCTUUCUCU; sugars from the 5' end m6 d12 m6, all phosphorothioate, methylation of C not given here) [ASO6, modified antisense oligonucleotide derived from the mouse HSP90AB1 gene]
Human Hsp90AB1 protein
  level of HSP90ab1 protein: effective; also recorded: most effective
Human Hsp90AB1 mRNA
  level of human Hsp90AB1 mRNA: knockdown; also recorded: reduced
DIO mice [1]
  glucose tolerance (IPGTT): significant improvement; also recorded: significantly improved
DIO mice [2]; DIO mice, eight weeks treatment
  fed glucose level: significant improvement
DIO mice [2]; HFD fed C57B/6 mice, 4 weeks treatment
  fed glucose levels: suppressed
DIO mice [3]
  fed insulin levels: significant reduction
Hsp90ab1 mRNA
  Hsp90ab1 mRNA level in the gastrocnemius muscles: effective; also recorded: reduce
[4]; DIO mice (fed HFD), 4 weeks, vs NC
  PDK4 expression (mRNA) in skeletal muscle: significant decrease
[4]; DIO mice, Western blot
  phosphorylation of PDH-E1α (S232, S293, S300) in skeletal muscle: decreased
[4]; DIO mice, four weeks
  skeletal muscle mRNA level of Adipose triglyceride lipase (ATGL): sharp increase
[4]; DIO mice, four weeks, skeletal muscles
  expression of key genes that regulate glycolysis and lipid oxidation (PFKM, ALDOA, GYS1, ACCA, HSL, SCD1, ACADL, CPT1b): influences the expression
Muscle of DIO mice
  18:0 and 18:0-OH acylcarnitines in muscle: selectively decreased
  18:2 enriched species of cardiolipin in muscle: increased
  steric, oleic, and linoleic free fatty acids (FFA) in muscle: decreased
